Patent publication EP1579856A1 (LABORATOIRES BESINS INTERNATIONAL, priority 2004, dated 2005)
Read-outs that look alike come from different tables or passages of the source. Marks after values point to notes of the source that are not given here. Each block holds one compound with its values, some of them ahead of it.

What was measured:
clinical = assay: clinical; parameters: species or system women; conditions: in vivo
Protocol: At the end of a menstrual cycle, each patient received a single dose, after which serial blood samples were collected at 0, 0.5, 1, 1.5, 2, 3, 4, 6, 12, 18, 24, 36, 48, and 72 hours.

estrogen receptors = conditions: more affinity than tamoxifen; cited from earlier work
[1] = in vivo
Protocol: (§1) The patients received [^3H]-labeled drug applied directly on the affected breasts at specified intervals ranging from 12 hours to 7 days before surgery to excise diseased tissue. Breast tissue from three regions: the tumor, tissue immediately surrounding the tumor, and normal tissue, was excised and immediately frozen in liquid nitrogen. Additionally, plasma and urine samples were obtained at scheduled intervals and frozen until analysis.

[2] = in vivo; remark: listed apart in the source
Protocol: Each participant applied the gel daily for the duration of two menstrual cycles.
On the first day of the following menstruation, treatment, which consisted of daily application of the gel over two menstrual cycles, began. Blood samples were collected 24 hours following the morning application of gel on days 7, 20 and 25 of the first and second cycles. On the last day of administration, day 25 of the second menstrual cycle, serial blood samples were collected prior to application and at 0.5, 1, 1.5, 2, 3, 4, 6, 12, 18, 24, 36, 48, and 72 hours after application of the gel.

estrone sulphatase = target: T1, estrone sulphatase (Homo sapiens, UniProt P08842); conditions: mammary cancer cell lines; cited from earlier work
T1 construct: estrone sulphatase activity in mammary cancer cell lines; endogenous in cells
T1 sequence (P08842 22-583): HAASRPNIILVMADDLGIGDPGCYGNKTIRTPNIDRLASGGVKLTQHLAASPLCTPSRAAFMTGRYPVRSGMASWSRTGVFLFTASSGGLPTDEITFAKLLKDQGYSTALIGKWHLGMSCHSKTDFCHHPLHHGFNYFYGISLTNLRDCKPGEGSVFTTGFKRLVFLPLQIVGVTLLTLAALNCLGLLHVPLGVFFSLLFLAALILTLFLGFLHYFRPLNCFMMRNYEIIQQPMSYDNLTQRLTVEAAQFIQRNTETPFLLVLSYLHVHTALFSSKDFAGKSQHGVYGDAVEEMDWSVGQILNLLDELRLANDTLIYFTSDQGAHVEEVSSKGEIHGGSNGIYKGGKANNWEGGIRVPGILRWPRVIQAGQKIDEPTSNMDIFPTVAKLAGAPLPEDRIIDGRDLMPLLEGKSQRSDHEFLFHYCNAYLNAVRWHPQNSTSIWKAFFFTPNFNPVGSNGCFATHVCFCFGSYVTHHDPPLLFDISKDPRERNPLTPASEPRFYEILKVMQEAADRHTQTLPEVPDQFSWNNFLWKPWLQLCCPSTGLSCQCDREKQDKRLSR

[3] = in vivo; remark: listed apart in the source
Protocol: as §1

[4] = in vivo; remark: listed apart in the source
Protocol: as §1

rat liver = conditions: in vivo; cited from earlier work
[5] = percutaneous dose of 1 mg/breast/day; cited from earlier work
[6] = Group 2: 4-OHT gel (20 mg/100 g) 0.5 mg/day, both breasts, 3-4 weeks; n=5; cited from earlier work
[7] = Example 1 follow-up study: radioactivity and metabolites in blood
Protocol: as §1

[8] = tested on: normal human epithelial breast cells; conditions: more than Z-tamoxifen; cited from earlier work
[9] = cited from earlier work
[10] = tested on: p53(-) normal human mammary epithelial cells; conditions: cited from earlier work
[11] = Example 1 follow-up study: radioactivity and metabolites in breast tissue after percutaneous application; conditions: for % Metabolites in Breast Tissue: breast tumor tissue
Protocol: as §1

[12] = cited from earlier work; remark: listed apart in the source
[13] = oral tamoxifen group, 20 mg/day

Compound: CCC(=C(c1ccc(O)cc1)c1ccc(OCCN(C)C)cc1)c1ccccc1 [4-hydroxy tamoxifen, 1-[4-(2-N-dimethylaminoethoxy)phenyl]-1-(4-hydroxyphenyl)-2-phenylbut-1-ene]
t1/2 (Range) (clinical; human, topical or ocular): (49 - 101) hr | half-life (clinical; human, topical or ocular, t1/2 (Range)): 58 to 118 h | patients with detectable plasma concentrations (>5 pg/mL) (clinical): 6 of 12 | affinity for estrogen receptors (estrogen receptors): 100 fold | peak urinary elimination [1]: later time | laboratory or clinical evidence of systemic effects [2]: no detectable | inhibitory effect on estrone sulphatase activity (estrone sulphatase): significant inhibitory effect | distribution within breast tissue [3]: concentrated predominantly in the cytosolic and nuclear fractions of breast tissue | metabolism in intracellular sites of breast tissue [3]: remained unmetabolized except for limited isomerization from the Z to the E form | retention in the breast [3]: approximately 4 days | % of radioactivity in blood represented by [4]: 68% | rat liver carcinogen (rat liver): not | 4-hydroxy tamoxifen concentration in breast tissue exceeds normal estradiol concentrations in breast tissue by a factor of [5]: 4 | Mean ± SD 4-hydroxy tamoxifen (Range), Plasma Concentrations, Day Pre-Surgery [6]: 0 (0 - 0)^a pg/mL

% of radioactivity in blood represented by ([7]; 24 hours after percutaneous administration of [3H]-4-hydroxy tamoxifen): 18%
Compound: CCC(=C(c1ccc(O)cc1)c1ccc(OCCNC)cc1)c1ccccc1 [N-Desmethyl-4-Hydroxy Tamoxifen]

Compound: CC/C(=C(\c1ccc(O)cc1)c1ccc(OCCN(C)C)cc1)c1ccccc1 [Z-4-hydroxy tamoxifen]
inhibits the growth in culture of normal human epithelial breast cells [8]: 100 fold

Compound: CC/C(=C(\c1ccccc1)c1ccc(OCCN(C)C)cc1)c1ccccc1 [[^3H]-tamoxifen, reference compound]
plateau of radioactivity in blood ([7]; percutaneous application): 2 days

Compound: CC/C(=C(\c1ccccc1)c1ccc(OCCN(C)C)cc1)c1ccccc1 [tamoxifen]
decrease of risk of benign breast disease ([9]; cyst): 34% | decrease of risk of benign breast disease ([9]; duct ectasia): 28% | decrease of risk of benign breast disease ([9]; fibrocystic disease): 33% | decrease of risk of benign breast disease ([9]; hyperplasia): 40% | reduces the risk of developing benign breast disease ([9]; overall): 28% | reduction of the need for breast biopsies ([9]; women under 50): 41% | inhibitory effect on estrone sulphatase activity (estrone sulphatase): little or no effect | initiates apoptosis [10]: initiates apoptosis | % Metabolites in Breast Tissue ([11]; Day 4 after percutaneous administration of Z-[3H]-4-hydroxy tamoxifen to the affected breast): <1% | % Metabolites in Breast Tissue ([11]; Day 7 after percutaneous administration of Z-[3H]-4-hydroxy tamoxifen to the affected breast): 2% | retention in the breast ([11]; percutaneous application of [3H]-labeled drug): shorter and far weaker | side effects reported by one person ([12]; Group 2 (0.5 mg/day gel): seventh day of treatment, Group 1 (oral tamoxifen): fifth day of treatment): hot flashes and mild vaginitis | anti-thrombin III and fibrinogen, pre- versus post treatment [12, 13]: statistically significant decrease | platelet and lymphocyte counts, pre- versus post treatment [12, 13]: statistically significant increase | rat liver carcinogen (rat liver): potent rat liver carcinogen
